Entries after “also recorded” stand apart in the source; their conditions may differ.
Tests used:
Type in all cases: cell-based
hP2X7 [1] = target: T1, hP2X7 (Homo sapiens, UniProt Q99572); assay: YO-PRO 1 dye uptake assay, 1321 N1 cells stably transfected with hP2X7; details: for activity in YO-PRO 1 dye uptake screen / reduction of P2X7 activation: compound 30 μM, 700 μM ATP; for reduction of P2X7 activation: 0.3% DMSO
T1 construct: expressed in transfected cells; host or cells: HEK-293, stably transfected (gift of E. Adinolfi's group, Ferrara University)
T1 sequence (Q99572 1-595): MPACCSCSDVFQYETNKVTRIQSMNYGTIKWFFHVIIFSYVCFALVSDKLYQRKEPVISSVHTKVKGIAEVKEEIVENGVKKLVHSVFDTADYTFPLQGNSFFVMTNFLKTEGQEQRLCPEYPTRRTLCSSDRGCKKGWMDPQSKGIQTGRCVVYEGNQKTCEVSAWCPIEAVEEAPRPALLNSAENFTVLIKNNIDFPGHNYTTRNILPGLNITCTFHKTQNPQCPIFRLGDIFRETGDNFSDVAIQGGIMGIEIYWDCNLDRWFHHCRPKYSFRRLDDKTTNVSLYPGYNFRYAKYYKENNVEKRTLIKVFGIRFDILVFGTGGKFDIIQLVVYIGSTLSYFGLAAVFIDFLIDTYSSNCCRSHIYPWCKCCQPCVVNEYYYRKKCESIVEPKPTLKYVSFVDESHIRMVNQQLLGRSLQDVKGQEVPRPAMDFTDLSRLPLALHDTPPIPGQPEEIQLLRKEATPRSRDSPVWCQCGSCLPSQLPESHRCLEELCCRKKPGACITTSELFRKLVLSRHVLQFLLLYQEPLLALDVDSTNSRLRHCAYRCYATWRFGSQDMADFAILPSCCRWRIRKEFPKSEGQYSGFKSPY
Description: (§1) Astrocytoma 1321 N1 (established by Dr. Gaia Pasqualetto) and HEK-293 (kindly gifted by E. Adinolfi’s group, Ferrara University) both stably transfected with hP2X7, were used to assess the activity of the small molecules selected from the VS. Cells were maintained in DMEM:F12 (PanBiotech) supplemented with 10% FBS, 1% pen-strep, and 150 μg/mL G418 (PanBiotech).
Astrocytoma 1321 N1 cells (2–2.5 × 10^4 cells/well) and HEK-293 cells (4–5 × 10^4 cells/well) expressing hP2X7 were seeded in poly-L-lysine-coated 96-well plates (Sarstedt) 24 h before the experiment. YO-PRO 1 dye was prepared at 5 μM in extracellular solution with low divalent cations (ECS-LD) buffer (147 mM NaCl, 10 mM HEPES, 13 mM glucose, 0.2 mM CaCl2, 2 mM KCl, pH 7.4) and added to cells after washing them with Dulbecco’s phosphate- buffered saline (DPBS) (PanBiotech) and incubated for 20 min at 37 °C. ATP-induced dye uptake, mediated by hP2X7 activation, was monitored using a Clariostar plate reader (excitation: 485 nm; emission: 538 nm) for 30 cycles (75–150 s/cycle), after recording the baseline for five cycles. hP2X7 activation was quantified at cycle 10 by calculating the fluorescence intensity (FI) ratio (Δ(Fcycle 10–F cycle 1)/cycle time).
The P2X7 receptor, besides being a ligand-gated ion channel, forms large membrane pores following prolonged exposure to high concentrations of ATP, leading to apoptosis (Mackenzie et al. 2005). The YO-PRO 1 dye uptake assay, which measures dye influx through these pores, was selected as the primary screen. The fluorescence of YO-PRO 1 increases when it binds to DNA, enabling real-time monitoring of P2X7 activation (calculated as the rate of increase in fluorescence as YO-PRO 1 binds nuclear DNA).
The screening compounds were tested at 30 μM (0.3% DMSO) in 5 μM YO-PRO 1 dye diluted in freshly prepared ECS-LD buffer. Cells pretreated with the screening compounds were challenged with 700 μM ATP, and the fluorescence intensities were recorded. The negative control consisted of cells treated with 0.3% DMSO, while the positive control was 0.1 μM JNJ47965567, a selective P2X7 antagonist. ,
(§2) 2 Initial screening assays to identify hit compounds. (A) The compounds were screened at 30 μM in the YO-PRO 1 dye uptake using 1321 N1 cells stably transfected with hP2X7. Compound activity was evaluated along a time of 20 min (75 s per cycle) after ATP addition (700 μM). The fluorescence intensity (FI) values of the first 10 cycles were considered for assessing their ability to inhibit hP2X7. Compound responses were normalized to the fluorescent signal recorded on 0.3% DMSO cells treated with 700 μM ATP of each plate. […] (B) Compounds screened at 10 μM using MPR using 1321 N1 cells stably transfected with hP2X7. The compound activity was evaluated for 5 min after ATP addition (15 s per cycle). The fluorescence intensity recorded in the first cycles (before reaching a plateau response) was considered for assessing the small molecule’s ability to inhibit hP2X7. Compound responses were normalized to the fluorescence signal recorded on 0.1% DMSO cells treated with 700 μM ATP of each plate. […] One-way ANOVA and Dunnet test were used for statistical analysis (****P < 0.0001), (*P < 0.02).

hP2X7 [2] = target: T1, hP2X7; assay: Membrane Potential Red (MPR) dye assay, 1321 N1 cells stably transfected with hP2X7
Description: as §1
Cells were plated as described for the YO-PRO 1 dye uptake assay. MPR dye (Molecular Devices) was prepared following the manufacturer’s protocol and diluted 1:10 in ECS-LD buffer. After washing with DPBS, cells were incubated with the dye for 30 min at 37 °C. Fluorescence changes (excitation: 525 nm; emission: 560 nm) were recorded using a Clariostar plate reader during ATP-induced membrane depolarization. Baseline fluorescence was recorded for 5 cycles, and ATP was added via an automated injector (10 μL). Membrane depolarization was quantified as the ratio of the maximal fluorescence change over baseline intensity (Δ(F max–F0)/F0)).
as §2, with “0.02). […]” for “0.02).”

hP2X7 [3] = target: T1, hP2X7; assay: as above; details: compound 10 μM, 700 μM ATP

Row | Hill Slope of ATP concentration-response curve (hP2X7 [1]; YO-PRO 1 uptake, 1321 N1 hP2X7 cells) | EC50 (hP2X7 [1]; YO-PRO 1 uptake, 1321 N1 hP2X7 cells, ATP 1 μM to 10 mM) [µM] | EC50 (hP2X7 [2]; MPR assay, red dye, 1321 N1 hP2X7 cells, one biological replicate, read-out: ATP EC50) [µM] | activity in YO-PRO 1 dye uptake screen (hP2X7 [1]) | reduction of P2X7 activation (hP2X7 [1]) | statistically significant inhibition, % of control, initial MPR screen (hP2X7 [2]; compound 10 μM, 700 μM ATP) | Compound | activity in MPR screen, hP2X7-induced membrane depolarization (hP2X7 [3])
1 | 1.161 | 697 ± 203 | 679 | – | – | – | Nc1ncnc2c1ncn2[C@@H]1O[C@H](COP(=O)(O)OP(=O)(O)OP(=O)(O)O)[C@@H](O)[C@H]1O [ATP, reference compound] | –
2 | – | – | – | antagonist activity | at least 50% | – | O=C(NCCc1ccccc1)NC(Cc1ccc2c(c1)OCO2)Cc1ccc2c(c1)OCO2 [Compound 2] | active; also recorded: statistically inhibited
3 | – | – | – | antagonist activity | at least 50% | 65 % of control | O=C(CSc1ccccc1C(=O)Nc1ccnn1Cc1cccnc1)Nc1ccc2c(c1)OCO2 [Compound 9] | active; also recorded: statistically inhibited

— paper PMC12264943, “Identification of New Human P2X7 Antagonists Using Ligand- and Structure-Based Virtual Screening” (Journal of Chemical Information and Modeling, 2025)
